The test system of this data set is CCRIS mutagenicity, Ames/micronucleus/aberration tests. Briefly: CCRIS mutagenicity studies.
[1] abbreviates: Test System: AMES SALMONELLA TYPHIMURIUM, Strain/Indicator: TA100, Metabolic Activation: NONE, Method: STANDARD PLATE.
Setting [2] is: Test System: AMES SALMONELLA TYPHIMURIUM, Strain/Indicator: TA98, Metabolic Activation: NONE, Method: PREINCUBATION
The mark [3] stands for this setting: Test System: AMES SALMONELLA TYPHIMURIUM, Strain/Indicator: TA100, Metabolic Activation: NONE, Method: PREINCUBATION
Setting [4] is: Test System: AMES SALMONELLA TYPHIMURIUM, Strain/Indicator: TA100, Metabolic Activation: RAT, LIVER, S-9, AROCLOR 1254, Method: STANDARD PLATE.

Molecules are shown by their SMILES. The source made the active and inactive calls. The rule behind the calls is not given here.

For the molecule `O=C(Nc1cccc([N+](=O)[O-])c1)c1csc([N+](=O)[O-])c1`, the mutagenic call is “active; positive” (Test System: AMES SALMONELLA TYPHIMURIUM, Strain/Indicator: TA98, Metabolic Activation: NONE, Method: STANDARD PLATE) and “active; positive” under setting [1].

For `COC1=C(OC)C(=O)C(C)=CC1=O`, the mutagenic call was “inactive; negative” under setting [2]; “inactive; negative” (Test System: AMES SALMONELLA TYPHIMURIUM, Strain/Indicator: TA98, Metabolic Activation: RAT, LIVER, S-9, PHENOBARBITAL AND 5,6-BENZOFLAVONE, Method: PREINCUBATION); “inactive; negative” under setting [3]; “inactive; negative” (Test System: AMES SALMONELLA TYPHIMURIUM, Strain/Indicator: TA100, Metabolic Activation: RAT, LIVER, S-9, PHENOBARBITAL AND 5,6-BENZOFLAVONE, Method: PREINCUBATION); “inactive; negative” (Test System: AMES SALMONELLA TYPHIMURIUM, Strain/Indicator: TA102, Metabolic Activation: NONE, Method: PREINCUBATION); “inactive; negative” (Test System: AMES SALMONELLA TYPHIMURIUM, Strain/Indicator: TA102, Metabolic Activation: RAT, LIVER, S-9, PHENOBARBITAL AND 5,6-BENZOFLAVONE, Method: PREINCUBATION). Besides, the mutagenic call by setting is: (Test System: AMES SALMONELLA TYPHIMURIUM, Strain/Indicator: TA104, Metabolic Activation: NONE, Method: PREINCUBATION) “inactive; negative”; (Test System: AMES SALMONELLA TYPHIMURIUM, Strain/Indicator: TA104, Metabolic Activation: RAT, LIVER, S-9, PHENOBARBITAL AND 5,6-BENZOFLAVONE, Method: PREINCUBATION) “inactive; negative”; (Test System: AMES SALMONELLA TYPHIMURIUM, Strain/Indicator: TA2637, Metabolic Activation: NONE, Method: PREINCUBATION) “inactive; negative”; (Test System: AMES SALMONELLA TYPHIMURIUM, Strain/Indicator: TA2637, Metabolic Activation: RAT, LIVER, S-9, PHENOBARBITAL AND 5,6-BENZOFLAVONE, Method: PREINCUBATION) “inactive; negative”.

For `Cc1ccc2nc3c(c4c(c5ccccc53)O4)c(C)c2c1`, the mutagenic call runs as follows: under setting [1], “active; positive”; under setting [4], “inactive; negative”.

In the case of `O=[N+]([O-])c1cc2c(ccc3ccccc32)c2c1C=C[C@H](O)[C@H]2O`, the mutagenic call is “active; positive” under setting [2]; “inactive; negative” (Test System: AMES SALMONELLA TYPHIMURIUM, Strain/Indicator: TA98, Metabolic Activation: RAT, LIVER, S-9, AROCLOR 1254, Method: PREINCUBATION); “active; positive” under setting [3]; “active; positive” (Test System: AMES SALMONELLA TYPHIMURIUM, Strain/Indicator: TA100, Metabolic Activation: RAT, LIVER, S-9, AROCLOR 1254, Method: PREINCUBATION).

As to `Nc1nc2c(ccc3ncccc32)s1`, the mutagenic call (Test System: AMES SALMONELLA TYPHIMURIUM, Strain/Indicator: TA1538, Metabolic Activation: RAT, LIVER, S-9, AROCLOR 1254, Method: STANDARD PLATE) is “active; positive”.

As for `NC(=O)NO`, the mutagenic call was “active; positive; effect greater at 16 hr exposure” (End Point: IN VITRO MICRONUCLEUS, Test System: CHINESE HAMSTER V79 CELLS, Metabolic Activation: NONE); “active; positive” (End Point: IN VITRO MICRONUCLEUS, Test System: CHO CELLS, Metabolic Activation: RAT, LIVER, S-9, AROCLOR 1254); “active; positive (p<0.001)” (End Point: In vitro micronucleus, Test System: Human lymphoblastoid TK6 cells, Metabolic Activation: None); “active; positive” (Test System: AMES SALMONELLA TYPHIMURIUM, Strain/Indicator: TA97, Metabolic Activation: NONE, Method: STANDARD PLATE); “active; positive” (Test System: AMES SALMONELLA TYPHIMURIUM, Strain/Indicator: TA97, Metabolic Activation: RAT, LIVER, S-9, AROCLOR 1254, Method: STANDARD PLATE); “active; positive” (Test System: AMES SALMONELLA TYPHIMURIUM, Strain/Indicator: TA98, Metabolic Activation: RAT, LIVER, S-9, AROCLOR 1254, Method: STANDARD PLATE). Further, the mutagenic call is, setting by setting: under setting [4], “active; positive”; (Test System: AMES SALMONELLA TYPHIMURIUM, Strain/Indicator: TA102, Metabolic Activation: RAT, LIVER, S-9, AROCLOR 1254, Method: STANDARD PLATE) “active; positive”; (Test System: AMES SALMONELLA TYPHIMURIUM, Strain/Indicator: TA1535, Metabolic Activation: NONE, Method: STANDARD PLATE) “inactive; negative”; (Test System: AMES SALMONELLA TYPHIMURIUM, Strain/Indicator: TA1535, Metabolic Activation: RAT, LIVER, S-9, AROCLOR 1254, Method: STANDARD PLATE) “inactive; negative”; (Test System: AMES SALMONELLA TYPHIMURIUM, Strain/Indicator: TA1537, Metabolic Activation: NONE, Method: STANDARD PLATE) “inactive; negative”; (Test System: E. COLI, Strain/Indicator: WP2 (HCR), Metabolic Activation: NONE, Method: STANDARD PLATE) “inactive; negative”. For the same molecule, the mutagenic call is, setting by setting: (Test System: MOUSE LYMPHOMA, Strain/Indicator: L5178Y (TK+/TK-), Metabolic Activation: NONE, Method: MICROWELL) “active; positive”; (Test System: MOUSE LYMPHOMA, Strain/Indicator: L5178Y (TK+/TK-), Metabolic Activation: NONE, Method: SUSPENSION/PLATE) “active; positive”; (Test System: MOUSE LYMPHOMA, Strain/Indicator: L5178Y (TK+/TK-), Metabolic Activation: S-9, Method: MICROWELL) “active; positive”; (Test System: UDS RODENT HEPATOCYTES, Strain/Indicator: THY INCORP (NON-S-PHASE), Metabolic Activation: NONE, Method: AUTORADIOGRAPHY) “active; positive”.

As for `c1ccc(N=NNc2ccccc2)cc1`, the mutagenic call was “active; positive” (End Point: IN VIVO MICRONUCLEUS, Test System: BONE MARROW, Species: MOUSE, Strain/Sex: B6C3F1/MALE, Route: GAVAGE); “active; positive” (Test System: AMES SALMONELLA TYPHIMURIUM, Strain/Indicator: TA98, Metabolic Activation: HAMSTER, LIVER, S-9, AROCLOR 1254 (10%), Method: PREINCUBATION); “inactive; negative” under setting [2]; “active; positive” (Test System: AMES SALMONELLA TYPHIMURIUM, Strain/Indicator: TA98, Metabolic Activation: RAT, LIVER, S-9, AROCLOR 1254 (10%), Method: PREINCUBATION); “active; positive” (Test System: AMES SALMONELLA TYPHIMURIUM, Strain/Indicator: TA100, Metabolic Activation: HAMSTER, LIVER, S-9, AROCLOR 1254 (10%), Method: PREINCUBATION); “inactive; negative” under setting [3]. In addition, the mutagenic call by setting is: (Test System: AMES SALMONELLA TYPHIMURIUM, Strain/Indicator: TA100, Metabolic Activation: RAT, LIVER, S-9, AROCLOR 1254 (10%), Method: PREINCUBATION) “active; positive”; (Test System: AMES SALMONELLA TYPHIMURIUM, Strain/Indicator: TA1535, Metabolic Activation: HAMSTER, LIVER, S-9, AROCLOR 1254 (10%), Method: PREINCUBATION) “inactive; negative”; (Test System: AMES SALMONELLA TYPHIMURIUM, Strain/Indicator: TA1535, Metabolic Activation: NONE, Method: PREINCUBATION) “inactive; negative”; (Test System: AMES SALMONELLA TYPHIMURIUM, Strain/Indicator: TA1535, Metabolic Activation: RAT, LIVER, S-9, AROCLOR 1254 (10%), Method: PREINCUBATION) “inactive; negative”; (Test System: AMES SALMONELLA TYPHIMURIUM, Strain/Indicator: TA1537, Metabolic Activation: HAMSTER, LIVER, S-9, AROCLOR 1254 (10%), Method: PREINCUBATION) “active; positive”; (Test System: AMES SALMONELLA TYPHIMURIUM, Strain/Indicator: TA1537, Metabolic Activation: NONE, Method: PREINCUBATION) “inactive; negative”. In addition, for the setting “Test System: AMES SALMONELLA TYPHIMURIUM, Strain/Indicator: TA1537, Metabolic Activation: RAT, LIVER, S-9, AROCLOR 1254 (10%), Method: PREINCUBATION”, the mutagenic call is “active; positive”.

On to `CC(C)CCC[C@@H](C)[C@H]1CC[C@H]2[C@@H]3C[C@@H]4N(N5C(=O)c6ccccc6C5=O)[C@@]45C[C@@H](Cl)CC[C@]5(C)[C@H]3CC[C@]12C` (some centres not stated), for which the mutagenic call was “inactive; negative” (Test System: AMES SALMONELLA TYPHIMURIUM, Strain/Indicator: TA97A, Metabolic Activation: NONE, Method: STANDARD PLATE); “inactive; negative” under setting [1]; “inactive; negative” (Test System: AMES SALMONELLA TYPHIMURIUM, Strain/Indicator: TA102, Metabolic Activation: NONE, Method: STANDARD PLATE); “inactive; negative” (Test System: AMES SALMONELLA TYPHIMURIUM, Strain/Indicator: TA104, Metabolic Activation: NONE, Method: STANDARD PLATE).

These data come from PubChem BioAssay AID1259407 (Chemical Carcinogenesis Research Information System (CCRIS), 2018).
